Data reported in the NIST ThermoML archive (doi:10.1021/je600565m).

Assay: xn = mol fraction of the nth substance listed
Details: 101 kPa, Liquid

CCO [ethanol] + O
Details	mass density [kg/m3]	viscosity [mPa·s]
298.15 K, x2 = 0.0998	797.6	–
298.15 K, x2 = 0.2009	–	1.407
298.15 K, x2 = 0.2018	810.78	–
298.15 K, x2 = 0.3001	–	1.558
298.15 K, x2 = 0.3085	826.73	–
298.15 K, x2 = 0.4016	–	1.761
298.15 K, x2 = 0.4145	843.26	–
298.15 K, x2 = 0.5001	858.65	1.946
298.15 K, x2 = 0.6	–	2.166
298.15 K, x2 = 0.6205	885.56	–
298.15 K, x2 = 0.7	–	2.342
298.15 K, x2 = 0.7005	904.69	–
298.15 K, x2 = 0.7992	933.6	–
298.15 K, x2 = 0.8	–	2.39
298.15 K, x2 = 0.9	–	1.923
298.15 K, x2 = 0.9051	965.51	–
318.15 K, x2 = 0.1	780.53	0.848
318.15 K, x2 = 0.2	–	0.951
318.15 K, x2 = 0.201	793.6	–
318.15 K, x2 = 0.3001	807.71	1.003
318.15 K, x2 = 0.4004	823.81	–
318.15 K, x2 = 0.4036	–	1.09
318.15 K, x2 = 0.5002	–	1.168
318.15 K, x2 = 0.5003	840.31	–
318.15 K, x2 = 0.5998	863.31	–
318.15 K, x2 = 0.6	–	1.243
318.15 K, x2 = 0.7	–	1.298
318.15 K, x2 = 0.7001	888.76	–
318.15 K, x2 = 0.8001	919.19	–
318.15 K, x2 = 0.8007	–	1.293
318.15 K, x2 = 0.9	952.47	0.977

CCOC(C)=O [ethyl acetate] + CCO
Details	mass density [kg/m3]	viscosity [mPa·s]
298.15 K, x1 = 0.1	801.5	0.848
298.15 K, x1 = 0.1992	816.25	–
298.15 K, x1 = 0.2	–	0.707
298.15 K, x1 = 0.3	–	0.614
298.15 K, x1 = 0.3006	829.52	–
298.15 K, x1 = 0.3949	840.61	–
298.15 K, x1 = 0.4	–	0.56
298.15 K, x1 = 0.5	–	0.513
298.15 K, x1 = 0.5001	852.04	–
298.15 K, x1 = 0.5987	861.64	–
298.15 K, x1 = 0.6	–	0.488
298.15 K, x1 = 0.7	870.79	0.465
298.15 K, x1 = 0.7981	879.06	–
298.15 K, x1 = 0.8	–	0.448
298.15 K, x1 = 0.9	886.96	0.434
298.15 K, x1 = 0.9501	890.81	–
318.15 K, x1 = 0.1	783.09	0.624
318.15 K, x1 = 0.2	–	0.535
318.15 K, x1 = 0.2001	796.45	–
318.15 K, x1 = 0.3	808.31	–
318.15 K, x1 = 0.3007	–	0.471
318.15 K, x1 = 0.4	–	0.432
318.15 K, x1 = 0.4001	819.37	–
318.15 K, x1 = 0.5	829.53	0.412
318.15 K, x1 = 0.6	838.75	–
318.15 K, x1 = 0.6003	–	0.387
318.15 K, x1 = 0.7	847.18	–
318.15 K, x1 = 0.7006	–	0.374
318.15 K, x1 = 0.8	–	0.364
318.15 K, x1 = 0.8001	855.16	–
318.15 K, x1 = 0.8999	862.6	–
318.15 K, x1 = 0.9	–	0.36

CCOC(C)=O [ethyl acetate] + O
Details	mass density [kg/m3]	viscosity [mPa·s]
298.15 K, x2 = 0.0258	–	0.436
298.15 K, x2 = 0.0269	895.32	–
298.15 K, x2 = 0.045	–	0.444
298.15 K, x2 = 0.0469	896.13	–
298.15 K, x2 = 0.0722	897.09	–
298.15 K, x2 = 0.0748	–	0.456
298.15 K, x2 = 0.0853	–	0.46
298.15 K, x2 = 0.0892	897.9	–
298.15 K, x2 = 0.1045	898.48	–
298.15 K, x2 = 0.1053	–	0.468
298.15 K, x2 = 0.1249	899.5	–
298.15 K, x2 = 0.1258	–	0.476
318.15 K, x2 = 0.0249	870.81	–
318.15 K, x2 = 0.025	–	0.362
318.15 K, x2 = 0.0496	–	0.368
318.15 K, x2 = 0.0524	871.8	–
318.15 K, x2 = 0.075	–	0.373
318.15 K, x2 = 0.0766	872.73	–
318.15 K, x2 = 0.0999	–	0.379
318.15 K, x2 = 0.1003	873.94	–
318.15 K, x2 = 0.1254	–	0.385
318.15 K, x2 = 0.1255	875.08	–
